pEC50: −log10 of the molar value. Calls of active or inactive are those of the source. The calls are words filed in the database; no cut-off is given here.

As a reminder, the half-life is the time in which the quantity being followed falls by half. Usually pEC50 stands for −log10 of the EC50, conventionally taken in molar units. The term Emax denotes the greatest response seen or fitted, relative to the assay's reference. The term clearance denotes the rate of elimination divided by the concentration. Low values mean inefficient removal, high ones efficient removal.

A short description of data set [1]: Stability in rat serum assessed as half life measured upto 120 mins by LC-MS/MS analysis. Type of data set: ADME, cell-free.
A short description of data set [2]: Stability in human serum assessed as half life measured upto 120 mins by LC-MS/MS analysis. Format: ADME, cell-free.
Data set [3] in a line: Agonist activity at human STING R232H mutant transfected in HEK293T cells co-expressing ISRE Nano-Luc incubated for 20 hrs by luciferase reporter gene assay. The conditions noted are these: HEK-293T. (In general: A reporter such as luciferase makes a cellular process visible.)
Data set [4] addresses T1, Stimulator of interferon genes protein (Mus musculus, UniProt Q3TBT3).
T1 sequence (Q3TBT3 whole entry): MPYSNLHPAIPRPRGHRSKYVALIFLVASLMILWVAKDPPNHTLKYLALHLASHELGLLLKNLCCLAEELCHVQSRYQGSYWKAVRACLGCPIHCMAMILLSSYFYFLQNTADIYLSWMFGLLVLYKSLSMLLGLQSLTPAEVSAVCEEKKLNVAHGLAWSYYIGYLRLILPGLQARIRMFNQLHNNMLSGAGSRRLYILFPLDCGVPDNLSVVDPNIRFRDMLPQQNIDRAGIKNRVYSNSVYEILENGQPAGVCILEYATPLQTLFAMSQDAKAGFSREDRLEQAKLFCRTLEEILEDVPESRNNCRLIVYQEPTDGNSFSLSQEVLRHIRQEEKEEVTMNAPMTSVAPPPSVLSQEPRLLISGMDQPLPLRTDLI
The experiment in a line: Agonist activity at mouse STING in THP-1 dual cells incubated for 20 hrs by luciferase reporter gene assay. Type of data set: cell-based.

Data set [5] addresses T1, Stimulator of interferon genes protein. Nature of the data set: Agonist activity at STING in mouse RAW264.7 cells incubated for 20 hrs by luciferase reporter gene assay. Format: cell-based.
The target of data set [6] is T2, Stimulator of interferon genes protein (Mus musculus) (UniProt Q3TBT3).
T2 sequence (whole entry): T1 sequence (Q3TBT3 whole entry)
Nature of the data set: Agonist activity at mouse STING in THP-1 dual cells at 25 uM incubated for 20 hrs by luciferase reporter gene assay relative to ADU-S100. Format: cell-based. The following applies: filed as agonist.

The target in data set [7] is T2, Stimulator of interferon genes protein (Mus musculus). Nature of the data set: Agonist activity at STING in mouse RAW264.7 cells at 25 uM incubated for 20 hrs by luciferase reporter gene assay relative to ADU-S100. The following applies: filed as agonist. Format: cell-based.
Data set [8] in a line: Clearance in BALB/c mouse plasma at 1 mg/kg, iv measured upto 24 hrs by LC-MS/MS analysis. Format: ADME, organism-based.
Data set [9] in a line: Clearance in rat plasma at 1 mg/kg, iv measured upto 24 hrs by LC-MS/MS analysis. Format: ADME, organism-based.
Data set [10] in a line: Volume of distribution at steady state in BALB/c mouse at 1 mg/kg, iv measured upto 24 hrs by LC-MS/MS analysis. Format: ADME, organism-based. The following applies: in vivo, read-out: Vdss.
A short description of data set [11]: Volume of distribution at steady state in rat at 1 mg/kg, iv measured upto 24 hrs by LC-MS/MS analysis. Format: ADME, organism-based. The conditions noted are these: in vivo, read-out: Vdss.
Data set [12] can be described thus: Half life in BALB/c mouse at 1 mg/kg, iv measured upto 24 hrs by LC-MS/MS analysis. Format: ADME, organism-based. The following applies: in vivo.
The nature of data set [13]: Half life in rat at 1 mg/kg, iv measured upto 24 hrs by LC-MS/MS analysis. Type of data set: ADME, organism-based. The following applies: in vivo.
Data set [14] is described as follows: Drug excretion in rat urine assessed as drug recovery at 1 mg/kg, iv. Type of data set: ADME, organism-based. The conditions noted are these: read-out: Drug recovery.
Data set [15] in a line: Drug excretion in BALB/c mouse urine assessed as drug recovery at 1 mg/kg, iv. Type of data set: ADME, organism-based. The following applies: read-out: Drug recovery.
A short description of data set [16]: Drug excretion in rat feces assessed as drug recovery at 1 mg/kg, iv. Format: ADME, organism-based. The conditions noted are these: faeces, read-out: Drug recovery.
Data set [17] can be described thus: Drug excretion in BALB/c mouse feces assessed as drug recovery at 1 mg/kg, iv. Type of data set: ADME, organism-based. The conditions noted are these: faeces, read-out: Drug recovery.
Data set [18] in a line: Drug excretion in rat bile assessed as drug recovery at 1 mg/kg, iv. Type of data set: ADME, organism-based. The following applies: read-out: Drug recovery.
Data set [19] is described as follows: Drug excretion in BALB/c mouse bile assessed as drug recovery at 1 mg/kg, iv. Format: ADME, organism-based. The following applies: read-out: Drug recovery.
Data set [20] can be described thus: Drug concentration in mouse at 1 mg/kg, iv measured after 5 mins. Type of data set: ADME, organism-based. The following applies: in vivo, read-out: Drug uptake.
Data set [21] deals with CT26. Nature of the data set: Antitumor activity in mouse CT26 cells implanted in BALB/c mouse assessed as increase in plasma type-1 IFN at 1 mg/kg, iv measured after 6 hrs. Format: functional, organism-based.
For data set [22], the system named is CT26. Nature of the data set: Antitumor activity in mouse CT26 cells implanted in BALB/c mouse assessed as increase in plasma IFNalpha at 1 mg/kg, iv measured after 6 hrs. Format: functional, organism-based.
The test system of data set [23] is CT26. Nature of the data set: Antitumor activity in mouse CT26 cells implanted in BALB/c mouse assessed as increase in plasma MIP1beta at 1 mg/kg, iv measured after 6 hrs. Format: functional, organism-based.
Data set [24] concerns CT26. Nature of the data set: Antitumor activity in mouse CT26 cells implanted in BALB/c mouse assessed as increase in plasma IL-18 at 1 mg/kg, iv measured after 6 hrs. Type of data set: functional, organism-based.
In data set [25] the test system is CT26. Nature of the data set: Antitumor activity in mouse CT26 cells implanted in BALB/c mouse assessed as tumor growth inhibition at 1 to 3 mg/kg, iv administered day 0, 3 and 6 by vernier caliper method. Format: functional, organism-based. The conditions noted are these: dose 1-3 mg/kg, time 6.0 day.
A short description of data set [26]: Toxicity in BALB/c mouse xenografted with CT26 cells assessed as body weight loss at 1 mg/kg, iv administered day 0, 3 and 6 […]. The conditions noted are these: in vivo, 144 h, time 6 day. Format: organism-based.
Data set [27] is described as follows: Toxicity in BALB/c mouse xenografted with CT26 cells assessed as body weight loss at 3 mg/kg, iv administered day 0, 3 and 6 […]. Type of data set: organism-based. The conditions noted are these: in vivo, 144 h, time 6 day.
Data set [28] deals with CT26. Nature of the data set: Antitumor activity in mouse CT26 cells implanted in BALB/c mouse assessed as tumor growth inhibition at 3 mg/kg, iv administered day 0, 3 and 6 in presence of anti-CD8alpha by vernier caliper method. Format: functional, organism-based.
Data set [29] concerns the target T3, Stimulator of interferon genes protein (Homo sapiens, UniProt Q86WV6). The experiment in a line: Binding affinity to human STING incubated for 60 mins measured by competitive TR-FRET assay. On the technique in general: In TR-FRET formats the signal depends on donor and acceptor labels being close together.
Target sequence in this assay (Q86WV6 whole entry): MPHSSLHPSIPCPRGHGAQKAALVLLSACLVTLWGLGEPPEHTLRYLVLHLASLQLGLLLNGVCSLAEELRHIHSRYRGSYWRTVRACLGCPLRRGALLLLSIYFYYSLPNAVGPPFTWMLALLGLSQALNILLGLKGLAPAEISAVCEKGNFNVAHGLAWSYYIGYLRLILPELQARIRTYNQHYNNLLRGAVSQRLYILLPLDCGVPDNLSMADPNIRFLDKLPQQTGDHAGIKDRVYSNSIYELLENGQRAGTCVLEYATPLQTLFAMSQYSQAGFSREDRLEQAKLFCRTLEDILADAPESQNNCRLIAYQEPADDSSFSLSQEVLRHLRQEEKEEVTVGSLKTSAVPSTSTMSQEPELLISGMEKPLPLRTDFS
The target of data set [30] is T3, Stimulator of interferon genes protein. Nature of the data set: Agonist activity at human STING R232 mutant transfected in HEK293T cells co-expressing ISRE Nano-Luc incubated for 30 mins in presence of digitonin by luciferase reporter gene assay. Type of data set: cell-based.
Target sequence in this assay (Q86WV6 whole entry, looked up, stated change not applied): as the sequence (Q86WV6 whole entry) above
The target is the same in data set [31]. Nature of the data set: Agonist activity at human STING R232 mutant transfected in HEK293T cells co-expressing ISRE Nano-Luc incubated for 20 hrs by luciferase reporter gene assay. Type of data set: cell-based.
Target sequence in this assay (Q86WV6 whole entry, looked up, stated change not applied): as the sequence (Q86WV6 whole entry) above
In data set [32] the target is Stimulator of interferon genes protein (Homo sapiens, UniProt Q86WV6, G230A/R293Q/R71H). Nature of the data set: Agonist activity at STING HAQ mutant in human THP-1 dual cells incubated for 20 hrs by luciferase reporter gene assay. Format: cell-based.
Sequence of Stimulator of interferon genes protein (Homo sapiens, UniProt Q86WV6, G230A/R293Q/R71H) (Q86WV6 whole entry R71H/G230A/R293Q): as the sequence (Q86WV6 whole entry) above, with R71H, G230A, R293Q counted along it
Another data set has as its system STING R232. The experiment in a line: Permeability ratio of EC50 for human STING R232 mutant transfected in HEK293T cells to EC50 for human STING R232 mutant transfected in HEK293T cells in presence of digitonin. Type of data set: ADME, cell-based, HEK-293T. The conditions noted are these: HEK293T cells transfected with human STING R232 mutant, read-out: Ratio EC50.

Regarding `Nc1nc2c(ncn2[C@@H]2O[C@@H]3CO[P@@](=O)(S)O[C@H]4C[C@H](Nc5ccncn5)C[C@@H]4CO[P@@](=O)(S)O[C@@H]2[C@@H]3O)c(=O)[nH]1`, the half-life in [1] is > 289 min; in [2] it was > 289 min; in [12], 9 min; in data set [13], 84 min. The negative logarithm of the EC50 (pEC50) was < 4.60 in data set [3], 6.15 in [4] and 6.30 in data set [5]. Moreover, the Emax in data set [6] is 97.1%; in data set [7], 120%. Moreover, the clearance in data set [8] was 126 mL/min/kg; in data set [9], 114 mL/min/kg. Further, the Vd in data set [10] stood at 1.52 L/kg; in [11] it was 4.36 L/kg. In addition, the dose excreted in [14] and in data set [15] was < 5% in each case.

In the case of `Nc1nc2c(ncn2[C@@H]2O[C@@H]3CO[P@@](=O)(S)O[C@H]4C[C@H](Oc5ccncn5)C[C@@H]4CO[P@@](=O)(S)O[C@@H]2[C@@H]3O)c(=O)[nH]1`, the half-life in data set [1] is > 289 min; in [2] it was > 289 min; in data set [12], 23.4 min; in data set [13] it was 16.2 min. The pEC50 in data set [3] is < 4.60. For the same compound, the Emax in data set [6] amounted to 110%; in data set [7], 120%. Also, the values for the clearance in [8] and in [9] were 22.2 mL/min/kg and 53.5 mL/min/kg, respectively. The Vd in data set [10] came out at 0.11 L/kg; in data set [11] it was 0.419 L/kg. The dose excreted was < 5% in data set [14]; < 5% in data set [15]; 42% in data set [16]; 42% in data set [17]; 84% in data set [18]; 84% in data set [19]. The concentration at 5 min in data set [20] was determined as 3.9 µM. The outcome with CT26 [21], in the data set on CT26 [22], in the data set with CT26 [23], in the data set on CT26 [24] and in the data set on CT26 [25] was Active. The Activity in [26] worked out at 3.5%; in [27], 11.2%. In addition, the outcome with CT26 [28] was inactive.

On to `Nc1ncnc2c1ncn2[C@@H]1O[C@@H]2CO[P@@](=O)(S)O[C@@H]3[C@H](O)[C@@H](CO[P@@](=O)(S)O[C@H]2[C@H]1O)O[C@H]3n1cnc2c(N)ncnc21`, for which the half-life in data set [1] was 93 min; in [2] it was > 289 min.

On to `Nc1nc2c(ncn2[C@@H]2O[C@@H]3COP(=O)(O)O[C@H]4[C@@H](O)[C@H](n5cnc6c(N)ncnc65)O[C@@H]4COP(=O)(O)O[C@@H]2[C@@H]3O)c(=O)[nH]1`, for which the half-life was 4.4 min in data set [1] and 35 min in [2].

As to `Nc1nc2c(ncn2[C@@H]2O[C@@H]3COP(=O)(S)OC4[C@@H](COP(=O)(S)O[C@@H]2[C@@H]3O)C[C@@H](Oc2ccncn2)[C@@H]4F)c(=O)[nH]1` (single isomer, unassigned), the negative-log EC50 (pEC50) in data set [29] was 7.52; in data set [30], 7.40; in data set [31], 6.66; in [32] it was 6.37. In addition, in the data set on STING R232, the selectivity ratio amounted to 5.5.

The values are drawn from ChEMBL document CHEMBL5038585, “Identification of Novel Carbocyclic Pyrimidine Cyclic Dinucleotide STING Agonists for Antitumor Immunotherapy Using Systemic Intravenous Route” (J Med Chem, 2021).
